Results taken from ChEMBL document CHEMBL1139181, “Design and synthesis of novel heterobiaryl amides as metabotropic glutamate receptor subtype 5 antagonists” (Bioorg Med Chem Lett, 2007).

These compounds were tested against Metabotropic glutamate receptor 5 (Rattus norvegicus, UniProt P31424) (assay: Displacement of [3H]MPEP from mGluR5 in rat brain membrane).
Type: cell membranes

Sequence of Metabotropic glutamate receptor 5 (Rattus norvegicus, UniProt P31424) (P31424 whole entry): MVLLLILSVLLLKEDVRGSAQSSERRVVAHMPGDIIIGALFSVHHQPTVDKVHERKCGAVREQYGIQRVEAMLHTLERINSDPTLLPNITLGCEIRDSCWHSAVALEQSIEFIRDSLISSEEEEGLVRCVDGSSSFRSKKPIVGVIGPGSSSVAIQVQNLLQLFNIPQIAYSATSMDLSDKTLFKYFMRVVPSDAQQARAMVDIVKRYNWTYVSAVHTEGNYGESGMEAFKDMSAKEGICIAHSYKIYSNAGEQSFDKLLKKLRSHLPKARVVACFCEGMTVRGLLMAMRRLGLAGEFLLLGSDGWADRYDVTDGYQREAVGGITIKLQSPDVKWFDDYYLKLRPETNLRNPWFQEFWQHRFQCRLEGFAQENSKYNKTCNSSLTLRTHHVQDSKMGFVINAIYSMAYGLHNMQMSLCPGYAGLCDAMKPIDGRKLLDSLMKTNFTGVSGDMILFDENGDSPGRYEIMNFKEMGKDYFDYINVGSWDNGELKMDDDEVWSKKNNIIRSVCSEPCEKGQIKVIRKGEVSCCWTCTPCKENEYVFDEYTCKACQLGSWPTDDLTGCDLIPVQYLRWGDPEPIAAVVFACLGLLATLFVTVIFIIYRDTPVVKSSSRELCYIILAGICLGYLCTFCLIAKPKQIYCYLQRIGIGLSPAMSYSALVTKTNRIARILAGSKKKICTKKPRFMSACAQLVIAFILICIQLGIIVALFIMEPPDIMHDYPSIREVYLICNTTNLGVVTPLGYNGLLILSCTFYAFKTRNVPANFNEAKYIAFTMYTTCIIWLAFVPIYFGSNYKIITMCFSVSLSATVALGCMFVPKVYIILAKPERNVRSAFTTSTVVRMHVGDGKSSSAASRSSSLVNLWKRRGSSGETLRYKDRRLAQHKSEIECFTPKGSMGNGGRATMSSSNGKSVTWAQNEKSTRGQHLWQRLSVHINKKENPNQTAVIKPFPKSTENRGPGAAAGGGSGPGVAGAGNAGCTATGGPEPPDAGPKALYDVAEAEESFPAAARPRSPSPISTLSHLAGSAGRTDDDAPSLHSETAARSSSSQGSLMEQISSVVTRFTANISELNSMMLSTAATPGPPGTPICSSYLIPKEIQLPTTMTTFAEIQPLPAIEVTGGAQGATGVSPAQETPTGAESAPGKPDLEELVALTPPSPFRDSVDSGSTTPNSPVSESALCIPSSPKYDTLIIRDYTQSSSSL

Structure (SMILES) | Ki [nM]
Cc1cccc(NC(=O)c2nccn2C)n1 | 3070
Cc1cccc(NC(=O)c2ccc(-c3ccccn3)cn2)n1 | 100
Cc1cccc(NC(=O)c2cc(-c3ncccn3)ccn2)n1 | 2480
Cc1cccc(NC(=O)c2cc(-c3cccc4ccccc34)ccn2)n1 | 250
Cc1cccc(NC(=O)c2cc(-c3cccc(C#N)c3)ccn2)n1 | 320
COc1ccccc1-c1ccc(C(=O)Nc2cccc(C)n2)nc1 | 560
Cc1cccc(NC(=O)c2nccc3ccccc23)n1 | 440
Cc1cccc(NC(=O)c2cccn2C)n1 | > 10000
Cc1cccc(NC(=O)c2cc(-c3cc(F)cc(F)c3)ccn2)n1 | 43
Cc1cccc(NC(=O)c2cc(-c3cccc(F)c3)ccn2)n1 | 500
Cc1cccc(NC(=O)c2ccc(-c3ccccc3)cn2)n1 | 2800

These compounds were tested against Metabotropic glutamate receptor 5 (Rattus norvegicus) (UniProt P31424) (assay: Displacement of [3H]MPEP from mGluR5 in rat brain membrane at 10 uM).
Sequence of Metabotropic glutamate receptor 5 (Rattus norvegicus) (P31424 21-1203 limits assumed): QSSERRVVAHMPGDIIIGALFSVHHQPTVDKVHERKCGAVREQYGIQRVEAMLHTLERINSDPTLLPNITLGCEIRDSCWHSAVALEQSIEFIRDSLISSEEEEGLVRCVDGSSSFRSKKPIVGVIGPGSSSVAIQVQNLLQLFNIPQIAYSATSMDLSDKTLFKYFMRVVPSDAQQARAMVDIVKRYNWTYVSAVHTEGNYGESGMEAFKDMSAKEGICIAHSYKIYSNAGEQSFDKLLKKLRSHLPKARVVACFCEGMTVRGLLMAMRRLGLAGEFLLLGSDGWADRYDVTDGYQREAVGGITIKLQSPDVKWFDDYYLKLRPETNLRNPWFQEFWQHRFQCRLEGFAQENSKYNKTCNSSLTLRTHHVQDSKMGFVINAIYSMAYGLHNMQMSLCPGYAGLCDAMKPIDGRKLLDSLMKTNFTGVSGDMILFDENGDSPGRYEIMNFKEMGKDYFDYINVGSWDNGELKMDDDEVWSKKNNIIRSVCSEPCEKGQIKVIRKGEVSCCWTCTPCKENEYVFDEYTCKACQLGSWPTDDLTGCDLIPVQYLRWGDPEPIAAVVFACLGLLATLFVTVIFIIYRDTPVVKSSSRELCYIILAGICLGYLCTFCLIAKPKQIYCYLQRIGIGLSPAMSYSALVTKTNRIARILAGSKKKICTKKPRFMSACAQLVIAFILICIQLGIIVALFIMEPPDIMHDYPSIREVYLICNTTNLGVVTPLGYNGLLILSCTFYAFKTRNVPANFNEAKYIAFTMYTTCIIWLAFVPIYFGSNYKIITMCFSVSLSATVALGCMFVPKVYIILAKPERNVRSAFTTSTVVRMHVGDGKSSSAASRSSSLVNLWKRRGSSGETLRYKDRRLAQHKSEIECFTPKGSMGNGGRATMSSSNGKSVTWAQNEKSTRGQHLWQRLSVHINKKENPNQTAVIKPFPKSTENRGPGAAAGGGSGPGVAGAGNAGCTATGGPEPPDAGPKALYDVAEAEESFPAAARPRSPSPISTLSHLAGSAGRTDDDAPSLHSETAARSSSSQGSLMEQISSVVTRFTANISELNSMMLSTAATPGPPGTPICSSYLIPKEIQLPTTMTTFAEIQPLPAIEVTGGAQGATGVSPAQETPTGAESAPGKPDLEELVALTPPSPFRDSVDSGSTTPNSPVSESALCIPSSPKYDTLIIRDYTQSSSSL
Type: cell membranes

Structure (SMILES) | Activity [%]
Cc1cccc(NC(=O)c2ccc(-c3cccs3)cn2)n1 | 40
Cc1cccc(NC(=O)c2cc3ccccc3[nH]2)n1 | < 1
Cc1cccc(NC(=O)c2cc(-c3cccs3)ccn2)n1 | < 1
Cc1cccc(NC(=O)c2cc(-c3ccc4ccccc4c3)ccn2)n1 | 32
Cc1cccc(NC(=O)c2csc(-c3ccccc3)n2)n1 | < 1
Cc1cccc(NC(=O)c2cc3ccccc3o2)n1 | 40
Cc1cccc(NC(=O)c2cc(Cl)ccn2)n1 | 28
COc1ccccc1-c1ccnc(C(=O)Nc2cccc(C)n2)c1 | 91
COc1cccc(-c2ccnc(C(=O)Nc3cccc(C)n3)c2)c1 | 13
Cc1cccc(NC(=O)c2cc3ccccc3s2)n1 | 11
Cc1cccc(NC(=O)c2ccc(-c3cccc(C#N)c3)cn2)n1 | 7.4
Cc1cccc(NC(=O)c2cc3ccccc3n2C)n1 | 8

The compounds below were run against Metabotropic glutamate receptor 5 (Homo sapiens, UniProt P41594) (assay: Antagonist activity at mGluR5 expressed in CHO cells assessed as phosphoinositide hydrolysis).
Sequence of Metabotropic glutamate receptor 5 (Homo sapiens, UniProt P41594) (P41594 whole entry): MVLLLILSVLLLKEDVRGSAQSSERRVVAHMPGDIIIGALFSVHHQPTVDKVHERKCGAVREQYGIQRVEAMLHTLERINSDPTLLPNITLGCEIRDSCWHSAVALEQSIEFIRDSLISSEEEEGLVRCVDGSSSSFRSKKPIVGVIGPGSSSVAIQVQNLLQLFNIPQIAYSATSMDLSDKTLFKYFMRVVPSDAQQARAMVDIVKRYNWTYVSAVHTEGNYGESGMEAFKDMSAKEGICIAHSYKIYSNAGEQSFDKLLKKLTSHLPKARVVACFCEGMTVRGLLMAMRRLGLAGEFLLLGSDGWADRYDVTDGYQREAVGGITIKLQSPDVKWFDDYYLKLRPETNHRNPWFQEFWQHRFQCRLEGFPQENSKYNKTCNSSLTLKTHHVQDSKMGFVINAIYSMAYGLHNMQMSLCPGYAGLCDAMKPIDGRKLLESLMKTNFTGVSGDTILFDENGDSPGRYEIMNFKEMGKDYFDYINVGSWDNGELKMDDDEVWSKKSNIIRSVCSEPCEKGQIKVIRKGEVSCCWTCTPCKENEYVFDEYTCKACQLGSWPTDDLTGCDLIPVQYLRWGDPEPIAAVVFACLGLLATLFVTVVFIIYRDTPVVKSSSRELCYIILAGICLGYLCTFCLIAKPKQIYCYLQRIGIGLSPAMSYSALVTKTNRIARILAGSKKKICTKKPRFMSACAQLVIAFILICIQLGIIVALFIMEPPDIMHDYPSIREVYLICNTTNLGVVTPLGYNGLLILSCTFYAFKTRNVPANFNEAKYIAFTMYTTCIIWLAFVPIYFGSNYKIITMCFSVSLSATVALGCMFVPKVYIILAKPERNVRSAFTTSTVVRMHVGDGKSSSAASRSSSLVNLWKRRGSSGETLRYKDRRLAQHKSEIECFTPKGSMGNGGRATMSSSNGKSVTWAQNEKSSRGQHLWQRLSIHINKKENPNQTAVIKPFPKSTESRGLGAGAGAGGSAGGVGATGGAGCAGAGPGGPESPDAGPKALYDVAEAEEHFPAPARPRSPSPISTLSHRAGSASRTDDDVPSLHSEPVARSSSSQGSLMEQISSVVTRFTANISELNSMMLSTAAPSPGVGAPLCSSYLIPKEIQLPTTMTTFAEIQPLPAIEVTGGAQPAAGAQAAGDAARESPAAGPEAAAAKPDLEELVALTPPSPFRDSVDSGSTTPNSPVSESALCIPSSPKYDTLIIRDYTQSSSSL
Type: functional, cell-based

Structure (SMILES) | IC50 [nM]
Cc1cccc(NC(=O)c2ccc(-c3ccccn3)cn2)n1 | 12400
Cc1cccc(NC(=O)c2cc(-c3cccc(C#N)c3)ccn2)n1 | 7300
Cc1cccc(NC(=O)c2cc(-c3cc(F)cc(F)c3)ccn2)n1 | 160
